Values after ≈ are worked out from the molar mass of the structure shown.
Experiments:
[1] = tested on: S. epidermidis ATCC 12228; test: Minimum bactericidal concentration (MBC), plating of broth dilution tubes; assay type: cell-based, Staphylococcus epidermidis
Experimental: The MBC is another parameter used to assess the usefulness of an antibacterial. It provides some measure of the concentration of agent required to kill bacteria, not just inhibit their growth. In this test, 10 μL of media from each tube were plated on trypticase soy agar (TSA) plates with 5% sheep blood (Becton, Dickinson, and Co., Sparks, Md.) and grown for 24 hr. at 37° C. The MBC was taken to be the lowest VPA concentration at which no colonies were observed.

[2] = tested on: S. epidermidis ATCC 12228; test: Minimum inhibitory concentration (MIC), broth dilution method; assay type: cell-based, Staphylococcus epidermidis
Experimental: The minimum inhibitory concentration (MIC) and minimum bactericidal concentration (MBC) of the monomer were determined by the broth dilution method. Various amounts of VPA were added to 1 mL of brain heart infusion media (BHI) (Becton, Dickinson, and Co., Sparks, Md.) along with 1×10^5 cfu of S. epidermidis ATCC 12228 (MicroBiologics, Inc., St. Cloud, Minn.) using aseptic technique. Cultures were incubated for 24 hr. at 37° C. The MIC was taken to be the lowest VPA concentration at which no turbidity was observed.

Row | Molecule | MBC ([1]; Staphylococcus epidermidis, ATCC12228) | MBC (lowest concentration at which no colonies were observed) ([1]; 10 μL plated on TSA 5% sheep blood, 24 hr at 37° C, mean ±std. dev.) | MBC ([1]; S. epidermidis ATCC 12228) | MIC (lowest concentration at which no turbidity was observed) ([2]; 1×10^5 cfu in 1 mL BHI, 24 hr at 37° C, mean ±std. dev.) | MIC ([2]; S. epidermidis ATCC 12228, broth dilution)
1 | CN[C@H](CC(C)C)C(=O)N[C@H]1C(=O)N[C@@H](CC(N)=O)C(=O)N[C@H]2C(=O)N[C@H]3C(=O)N[C@H](C(=O)N[C@H](C(=O)O)c4cc(O)cc(O)c4-c4cc3ccc4O)[C@H](O)c3ccc(c(Cl)c3)Oc3cc2cc(c3O[C@@H]2O[C@H](CO)[C@@H](O)[C@H](O)[C@H]2O[C@H]2C[C@](C)(N)[C@H](O)[C@H](C)O2)Oc2ccc(cc2Cl)[C@H]1O [vancomycin, reference compound] | 1.12 ± 0.04 µM (≈ 1.62 µg/mL) |  |  |  | 
2 | vancomycin-PEG(3400)-acrylate [VPA] |  | 15 ± 1 µg/mL | 3.0 ± 0.2 µM | 11.5 ± 0.8 µg/mL | 2.35 ± 0.15 µM

Source: patent US20080107707A1, “POLYMERIZABLE ANTIMICROBIAL COMPOSITION” (REGENTS OF THE UNIVERSITY OF COLORADO, priority 2006, published 2008)
